How the values were obtained:
HIV-1 = assay: C8166 HIV-1 Luciferase Assay (EC50); type: cell-based; settings: Human immunodeficiency virus 1, C8166, 72 h
Procedure: C8166 HIV-1 Luciferase Assay (Ec50)
The assay used to measure inhibition of HIV replication is as described in WO 2004/050643, pages 73-75, incorporated herein by reference, with the following modifications:
Serial dilutions of HIV-1 inhibitors are prepared in complete media from DMSO stock solutions. Eleven serial dilutions of desired concentration are prepared in a 1 mL deep well titer plate (96 wells). The 12th well contains complete media with no inhibitor and serves as the positive control. All samples contain the same concentration of DMSO (<0.1% DMSO). Inhibitor is added, to triplicate wells, of a 96 well tissue culture treated clear view black microtiter plate (Corning Costar catalogue #3904). The total volume per well is 200 μL of media containing the cells and inhibitor. The last row is reserved for uninfected C8166 LTRIuc cells to serve as the background blank control and the first row is media alone.
Count C8166 LTRIuc cells and place in a minimal volume of complete RPMI 1640 in a tissue culture flask (ex. 30×10^6 cells in 10 mL media/25 cm^2 flask). Infect cells with HIV-1 at a moi of 0.005. Incubate cells for 1.5 h at 37° C. on a rotating rack in a 5% CO2 incubator. Resuspend cells in complete RPMI to give a final concentration of 25,000-cells/well. Add cells to wells of 96 well microtiter plate containing inhibitors. Add 25,000 uninfected C8166-LTRIuc cells/well in 200 μL complete RPMI to last row for background control. Incubate cells at 37° C. in 5% CO2 incubator for 3 days.
50 μL Steady Glo (luciferase substrate T112=5 hours Promega catalogue # E2520) is added to each well of the 96 well plate. The relative light units (RLU) of luciferase are determined using a luminescence plate reader. The calculated % inhibition values are used to determine EC50, slope factor (n) and maximum inhibition (Imax).

[1] = Caco-2 Permeability Assay; type: in vitro ADME; settings: human; for Papp A→B at 10 μM: apparent permeability A to B, compound at 10 μM, apical buffer pH 6.0, basolateral buffer pH 7.4, read-out: Papp (cm/sec, *10^−6)
Description: Caco-2 Permeability Assay Caco-2 cells are purchased from Cell Culture Services as frozen instant cells at a concentration of 1*10^7 cells/vial. DMEM+glutamax-I culture media is purchased from Gibco (10569). Fetal bovine serum (FBS) is purchased from HyClone (SH30396.03). Pennicilin/Streptomycin antibiotics are purchased from Gibco (15140). MEM non-essential amino acids are purchased from Gibco (11140). Hank's balanced salt solution (HBSS) is purchased from Gibco (14025). Bovine serum albumin (BSA) is purchased from Sigma-Aldrich (A7906). MES low moisture is purchased from Sigma-Aldrich (M3671). HEPES is purchased from Sigma-Aldrich (H3375). Dimethyl Sulfoxide (DMSO) is purchased from EMD (MX1457-6). Complete DMEM media is prepared by adding 1 L of FBS, 100 mL of pen/strep and 110 mL of MEM non essential amino acids to 10 L of DMEM+glutamax-I. […] Caco-2 cells are seeded on HTS transwell 24-well plates purchased from Corning (3397). These polycarbonate membrane plates have a diameter of […] and pore size of 0.4 μm. The Caco-2 cells vial is thawed in a 37° C. water bath until only a small ice pellet is left. The vial is then transferred to the laminar flow hood and its exterior is extensively washed with 70% ethanol. The total content of the vial (2 mL) is transferred into a 50 mL tube containing 38 mL of complete DMEM. […] The seeding is done by the Hamilton star robotic station which is controlled with the Venus program. Each well will receive 600 μL of complete DMEM on its basolateral side and 200 μL of cells on its apical side. Each well receives 50 000 cells. The 24-well plates are then returned to an automated Liconic STX110 incubator set at 37° C., 5% CO2 and 100% humidity. The culture media for the cells is changed every two days except on weekends. These cells are maintained for a period of two weeks prior to the running of the permeability assay. Permeability assays are usually performed between day 15 and 18 after the initial seeding. […] Controls for the assay are mannitol for tight junction determination and Digoxin for efflux transporter (p-glycoprotein) expression. On the day of the assay, each compound is diluted to 10 μM in the buffer (apical for A to B). 6 μl of the 5 mM DMSO stock is added to 3 mL of the buffer in a 24-well 10 mL deep plate covered with a lid. The plate containing all the diluted compounds is spun for 10 min at 3000 rpm in a Rotanta 46 RSC centrifuge from Hettich to remove unsoluble compound. This dilution is used to add at the start of the incubation. Each compound is tested in duplicate. On the day of the assay, the culture media of the 24-well plate is removed and replaced with warm HBSS. The HBSS is then also removed and the Apical and Basolatral buffer are added to their respective side of the transwells. These steps are performed by the Hamilton Star robotic station. The plate is then placed in a 37° C. incubator and is left to equilibrate for 30 min. After 30 min of incubation a background sample (25 μL from each well) is taken from the receiver side (Basolateral for A to B), and replenished with warm buffer. These samples and all others afterwards are kept in a 96-well 1 mL plate. To start the assay, the donor compartment (apical for A to B) is emptied and replaced with new buffer containing the compound at 10 μM. Once the compounds are added, the plate is returned to the 37° C. incubator and the timer is started. In order to determine how much compound is actually added to each well, a 50 μL sample is taken from each compound dilution, this sample is refered to as the load. These steps and the following are performed by the Tecan Freedom EVO robotic station controlled via the Gemini software. For A-to-B Assay: Samples (190 μL) are taken from each basolateral (receiver) chamber at time points 0, 60, 120 and 180 min or at time points 0, 30, 60 and 90 min. From the 190 μL taken, 50 μL is transferred to the receiving plate and 140 μL is discarded.

CC[C@H]1C[C@@H](n2c(=O)nc(-c3cnn(C)c3)c3oc4ccc(-c5cccnc5)cc4c32)CCO1 [Compound 1040]
EC50 (HIV-1): 12.8 nM | Papp A→B at 10 μM [1]: 19.2 ×10⁻⁶ cm/s

C[C@@H]1C[C@H](n2c(=O)nc(-c3cnn(C)c3)c3oc4ccc(-c5cnn(C)c5)nc4c32)C[C@H](C)O1 [Compound 1008]
EC50 (HIV-1): 73.9 nM | Papp A→B at 10 μM [1]: 18.1 ×10⁻⁶ cm/s

C[C@@H]1C[C@H](n2c(=O)nc(-c3cnn(C)c3)c3oc4cc(C#N)c(-c5cnn(C)c5)cc4c32)C[C@H](C)O1 [Compound 1052]
EC50 (HIV-1): 150 nM | Papp A→B at 10 μM [1]: 18.2 ×10⁻⁶ cm/s

CC[C@H]1C[C@@H](n2c(=O)nc(-c3cnn(C)c3)c3oc4c(C#N)cc(-c5cn(C)cn5)cc4c32)CCO1 [Compound 1098]
EC50 (HIV-1): 9.9 nM | Papp A→B at 10 μM [1]: 5.3 ×10⁻⁶ cm/s

CC[C@H]1C[C@@H](n2c(=O)nc(-c3cnn(C)c3)c3oc4ccc(-c5cccnc5)nc4c32)CCO1 [Compound 1006]
EC50 (HIV-1): 7.4 nM | Papp A→B at 10 μM [1]: 18.1 ×10⁻⁶ cm/s

Cn1cc(-c2cnc3oc4c(-c5cnn(C)c5)nc(=O)n(CCC5CCCCO5)c4c3c2)cn1 (stereo not shown) [Compound 1074]
EC50 (HIV-1): 90 nM | Papp A→B at 10 μM [1]: 11 ×10⁻⁶ cm/s

C[C@@H]1C[C@H](n2c(=O)nc(-c3cnn(C)c3)c3oc4ccc(-c5cnn(C)c5)cc4c32)C[C@H](C)O1 [Compound 1039]
EC50 (HIV-1): 36 nM | Papp A→B at 10 μM [1]: 16.8 ×10⁻⁶ cm/s

CC[C@H]1C[C@@H](n2c(=O)nc(-c3cnn(C)c3)c3oc4ccc(-c5cn(C)nc5C)nc4c32)CCO1 [Compound 1002]
EC50 (HIV-1): 8.6 nM | Papp A→B at 10 μM [1]: 14.5 ×10⁻⁶ cm/s

CNc1ccc(-c2nc(=O)n(CCC3CCCO3)c3c2oc2c(F)cc(-c4cnco4)cc23)cn1 (stereo not shown) [Compound 1029]
EC50 (HIV-1): 19 nM | Papp A→B at 10 μM [1]: 16.1 ×10⁻⁶ cm/s

CC[C@H]1C[C@@H](n2c(=O)nc(-c3cnn(C)c3)c3oc4cc(F)c(-c5ccc(CO)nc5)cc4c32)CCO1 [Compound 1045]
EC50 (HIV-1): 17.3 nM | Papp A→B at 10 μM [1]: 9.4 ×10⁻⁶ cm/s

CC[C@H]1C[C@@H](n2c(=O)nc(-c3cnn(C)c3)c3oc4cnc(-n5ccnc5)cc4c32)CCO1 [Compound 1090]
EC50 (HIV-1): 160 nM | Papp A→B at 10 μM [1]: 8.7 ×10⁻⁶ cm/s

CC[C@H]1C[C@@H](n2c(=O)nc(-c3cnn(C)c3)c3oc4cc(F)c(-c5ccc(C(C)O)nc5)cc4c32)CCO1 (stereo partly shown) [Compound 1046]
EC50 (HIV-1): 110 nM | Papp A→B at 10 μM [1]: 17.9 ×10⁻⁶ cm/s

CN(C)c1ccc(-c2nc(=O)n(CCC3CCCO3)c3c2oc2ccc(-c4cncs4)cc23)cn1 (stereo not shown) [Compound 1035]
EC50 (HIV-1): 9.4 nM | Papp A→B at 10 μM [1]: 11.5 ×10⁻⁶ cm/s

CC[C@H]1C[C@@H](n2c(=O)nc(-c3cnn(C)c3)c3oc4ccc(-c5cncnc5)nc4c32)CCO1 [Compound 1004]
EC50 (HIV-1): 21 nM | Papp A→B at 10 μM [1]: 14.1 ×10⁻⁶ cm/s

CC[C@H]1C[C@@H](n2c(=O)nc(-c3cnn(C)c3)c3oc4cc(C#N)c(-c5cn(C)cn5)cc4c32)CCO1 [Compound 1094]
EC50 (HIV-1): 9.1 nM | Papp A→B at 10 μM [1]: 8.3 ×10⁻⁶ cm/s

CNc1ccc(-c2nc(=O)n(CCC3CCCO3)c3c2oc2c(F)cc(-c4cnn(C)c4)cc23)cn1 (stereo not shown) [Compound 1030]
EC50 (HIV-1): 10.2 nM | Papp A→B at 10 μM [1]: 6.1 ×10⁻⁶ cm/s

CC[C@H]1C[C@@H](n2c(=O)nc(-c3cnn(C)c3)c3oc4cnc(-c5cnn(C)c5)cc4c32)CCO1 [Compound 1076]
EC50 (HIV-1): 5.9 nM | Papp A→B [1]: 17.9 ×10⁻⁶ cm/s

CC[C@H]1C[C@@H](n2c(=O)nc(-c3cnn(C)c3)c3oc4cc(C#N)c(-c5cnn(C)c5)nc4c32)CCO1 [Compound 1015]
EC50 (HIV-1): 3 nM | Papp A→B at 10 μM [1]: 20.7 ×10⁻⁶ cm/s

C[C@@H]1C[C@H](n2c(=O)nc(-c3cnn(C)c3)c3oc4cc(C#N)c(-c5cnn(C)c5)nc4c32)C[C@H](C)O1 [Compound 1016]
EC50 (HIV-1): 89 nM | Papp A→B at 10 μM [1]: 15.9 ×10⁻⁶ cm/s

CC[C@H]1C[C@@H](n2c(=O)nc(-c3cnn(C)c3)c3oc4nc(C)c(-c5cnco5)cc4c32)CCO1 [Compound 1080]
EC50 (HIV-1): 120 nM | Papp A→B at 10 μM [1]: 12.4 ×10⁻⁶ cm/s

CNc1ccc(-c2nc(=O)n(CCC3CCCO3)c3c2oc2ncc(-c4cnco4)cc23)cn1 (stereo not shown) [Compound 1066]
EC50 (HIV-1): 110 nM | Papp A→B at 10 μM [1]: 8.3 ×10⁻⁶ cm/s

CC[C@H]1C[C@@H](n2c(=O)nc(-c3cnn(C)c3)c3oc4cc(Cl)c(-c5cnn(C)c5)cc4c32)CCO1 [Compound 1048]
EC50 (HIV-1): 6 nM | Papp A→B at 10 μM [1]: 22.1 ×10⁻⁶ cm/s

CC[C@H]1C[C@@H](n2c(=O)nc(-c3cnn(C)c3)c3oc4ccc(-c5cnn(C)c5)nc4c32)CCO1 [Compound 1001]
EC50 (HIV-1): 4.9 nM | Papp A→B at 10 μM [1]: 20.4 ×10⁻⁶ cm/s

CC[C@H]1C[C@@H](n2c(=O)nc(-c3cnn(C)c3)c3oc4cc(C#N)c(-c5cnn(C)c5)nc4c32)C[C@@H](C)O1 [Compound 1017]
EC50 (HIV-1): 22 nM | Papp A→B at 10 μM [1]: 23.6 ×10⁻⁶ cm/s

CCC[C@H]1C[C@@H](n2c(=O)nc(-c3cnn(C)c3)c3oc4cc(C#N)c(-c5cnn(C)c5)nc4c32)CCO1 [Compound 1018]
EC50 (HIV-1): 22 nM | Papp A→B at 10 μM [1]: 19.8 ×10⁻⁶ cm/s

CC[C@H]1C[C@@H](n2c(=O)nc(-c3cnn(C)c3)c3oc4ncc(-c5cccnc5)cc4c32)CCO1 [Compound 1083]
EC50 (HIV-1): 41 nM | Papp A→B at 10 μM [1]: 12.5 ×10⁻⁶ cm/s

CNc1ccc(-c2nc(=O)n(CCC3CCCO3)c3c2oc2ccc(-c4cnn(C(C)C)c4)cc23)cn1 (stereo not shown) [Compound 1025]
EC50 (HIV-1): 350 nM | Papp A→B at 10 μM [1]: 8.1 ×10⁻⁶ cm/s

CC[C@H]1C[C@@H](n2c(=O)nc(-c3cnn(C)c3)c3oc4cc(OC)c(-c5cnn(C)c5)cc4c32)CCO1 [Compound 1055]
EC50 (HIV-1): 3.6 nM | Papp A→B at 10 μM [1]: 8.42 ×10⁻⁶ cm/s

CC[C@H]1C[C@@H](n2c(=O)nc(-c3cnn(C)c3)c3oc4cnc(-c5cnc(C)o5)cc4c32)CCO1 [Compound 1088]
EC50 (HIV-1): 36.2 nM | Papp A→B at 10 μM [1]: 22.9 ×10⁻⁶ cm/s

CC[C@@H]1C[C@H](n2c(=O)nc(-c3ccc(NC)nc3)c3oc4ccc(-c5cnn(C)c5)cc4c32)CO1 (racemic) [Compound 1037]
EC50 (HIV-1): 10.2 nM | Papp A→B at 10 μM [1]: 8.2 ×10⁻⁶ cm/s

CC[C@H]1C[C@@H](n2c(=O)nc(-c3cnn(C)c3)c3oc4cc(C#N)c(-c5cnn(C)c5)cc4c32)C[C@@H](C)O1 [Compound 1053]
EC50 (HIV-1): 43 nM | Papp A→B at 10 μM [1]: 22.2 ×10⁻⁶ cm/s

CC[C@H]1C[C@@H](n2c(=O)nc(-c3ccc(NC)nc3)c3oc4ncc(-c5cnn(C)c5)cc4c32)CCO1 [Compound 1069]
EC50 (HIV-1): 7.8 nM

CC[C@H]1C[C@@H](n2c(=O)nc(-c3cnn(C)c3)c3oc4cc(C#N)c(-c5cnn(C)c5)cc4c32)CCO1 [Compound 1049]
EC50 (HIV-1): 15.1 nM

Source: US9399645B2, “Inhibitors of HIV replication” (Boehringer Ingelheim International GmbH, priority 2011, dated 2016)
